The text below walks through data of the NIST ThermoML archive (doi:10.1021/je8006698).

Numbers after ± are expanded uncertainties.

The conditions of the data set: 298.15 K; 101.33 kPa; Liquid; Pycnometric method.
As to `CCC(C)(C)OC` [2-methoxy-2-methylbutane], the mass density is on record as 765.68 ± 0.69 kg/m3.
For the compound `CCCCO` [butan-1-ol], the mass density amounted to 805.87 ± 0.72 kg/m3.
Turning to `CCC(C)O` (stereo not drawn) [butan-2-ol], the mass density stood at 802.73 ± 0.72 kg/m3.
Consider `CCO` [ethanol], for which the mass density is 785.29 ± 0.71 kg/m3.
As for `CO` [methanol], the mass density was determined as 786.64 ± 0.71 kg/m3.
For `CCCO` [propan-1-ol], the mass density is 799.89 ± 0.72 kg/m3.
Turning to `CC(C)O` [propan-2-ol], the mass density came to 781.34 ± 0.7 kg/m3.
`O` [water]: the mass density amounted to 997.17 ± 0.9 kg/m3.

As a reminder, the mass density is mass per unit of volume.
